One data set deals with Daudi cells. Kind of data set: [3H] thymidine incorporation into DNA (cell proliferation). The class given is cell-based. Conditions: 16 h. The procedure:
(§1) The effects of 6-MP derivatives on DNA synthesis were assessed by [Methyl-^3H] thymidine incorporation into DNA. All the experiments performed with cells were carried out at least in triplicates. Adhesive cells (N87, Hela HtTA-1 and MDR HT-29) were seeded at 10,000 cells/well (96-well plate) or 60,000 cells/well (24-well plate). Cells in suspension (B-CLL, Daudi, HL-60, Jurkat, MOLT4 and U937cells) were seeded at 15,000 cells/well (96-wells plate) or 100,000 cells/well (24-wells plate). Adhesive cells were grown at 37° C. for 6 h after seeding, before treatment. For the assessment of [Methyl-^3H] thymidine incorporation, cells were treated with various concentrations of 6-MP derivatives at 37° C. for 16 h in the presence of [Methyl-^3H] thymidine (0.8-1.0 μCi/well). Then, plates were frozen (−20° C., 1 h). Adhesive cells were trypsinized before harvesting. Cells in suspension were directly harvested after thawing out the frozen cells.
(§2) The antiproliferative effect of 6-MP and SA-6MP on various cell lines was assessed by determining [^3H] thymidine incorporation into the DNA. 6-MP and SA-6MP at 0-200 μM were applied to Daudi, Hela and N87 cells cultured in 96-well plates in the presence of [^3H] thymidine, as described in Materials and Methods. […] As further shown, the sensitivity to the prodrug is cell type dependent.
Background: Dividing cells build labelled thymidine or BrdU into new DNA.

The subject of data set [1] is Hela cells. The data set is described as above. The class given is cell-based, human. Conditions: 16 h. The procedure:
as §1, §2

Data set [2] concerns N87 cells. The data set is described as above. It is filed as cell-based, human. Particulars: 16 h. The procedure: as §1, §2
The subject of data set [3] is B-CLL cells. As to the kind of experiment: Cell death by trypan blue dye exclusion / PI. The class given is cell-based, human. Particulars: 16 h. The procedure:
(§3) Cell death was monitored by trypan blue dye exclusion test or propidium iodide (PI) incorporation. Treated cells were incubated with PI (2 μg/ml) for 20 min at 37° C., washed with HBS and examined by fluorescence microscopy or analyzed by flow cytometry using fluorescence-activated cell sorting (Becton Dickinson FACScan Instrument using CellQuest software (BD Bioscience, San Jose, Calif.). Monolayer cells were trypsinized and washed with HBS before FACS analysis.
(§4) In parallel, the trypan blue dye exclusion test was used to assess cell death. In particular, different concentrations of 6MP and SA-6MP were applied to various cell cultures (Daudi and Hela cells, each at 30,000 cells/well) as described in Materials and Methods. The cells were stained with trypan blue to monitor the lethal effect of several concentrations of the tested conjugates as the percentage of dead cells. As shown in FIG. 3A-3D, cell death induced by 6-MP and SA-6MP was both concentration and cell type dependent. […] SA-6MP at concentrations higher than 150 μM reduced the residual viability to 75% (FIG. 3D).

In data set [4] the test system is Hela cells. As to the kind of experiment: Cell death by trypan blue dye exclusion / PI. Particulars: 16 h; for sensitivity to treatment (cell death, words): 100 μM. The class given is cell-based, human. The procedure:
as §3, §4

Another data set has as its system MDR HT-29 cells. As to the kind of experiment: Cell death by trypan blue dye exclusion / PI. The class given is cell-based, human. Particulars: 16 h; for sensitivity to treatment (cell death, words): MDR HT-29, 100 μM. The procedure: as §3, §4
Data set [5] has as its system B-CLL cells. Kind of data set: Apoptosis by Annexin-Cy5 FACS analysis. It is filed as cell-based, human. Particulars: 16 h. The procedure:
Apoptosis analysis in B-CLL cells treated with 6-MP derivatives at different concentration (16 h, at 37° C.) was done by FACS analysis. B-CLL cells were incubated with FITC-CD19 anti-human antibodies (Becton Dickinson, NJ, USA) for 20 minutes at 4° C. After washing off the unbound antibodies, samples were incubated with 5 μl Annexin-Cy5 (Pharmingen, San Diego, Calif., USA) in 10 mM HEPES pH 7.4 buffer containing 140 mM NaCl and 2.5 mM CaCl2, (HBS) for 10 minutes at room temperature. Subsequently, unbound Annexin was washed out and the samples were analyzed using FACScan analyzer (Becton-Dickinson, NJ, USA). The lymphocytes were counted and gated according to their size in forward and side scatters.
The slight decrease in viability of B-CLL human peripheral blood mononuclear cells (PBMC) upon incubation in the presence of 6-MP or SA-6MP was further investigated. B-CLL cells were treated with various concentrations of either 6-MP or SA-6MP and were subjected to flow cytometry analysis, as described in Materials and Methods, in order to monitor cells undergoing apoptosis.
A general note: Flow cytometry measures light scatter and fluorescence of single cells or particles in a stream.

The subject of data set [6] is N87 cells. As to the kind of experiment: XTT cell proliferation assay. The class given is cell-based, human. Particulars: 16 h. The procedure: (§5) Cell proliferation was determined by the XTT viability assay in 96-well plates, based on the reduction of tetrazolium salt to soluble formazan compounds by living cells. Cells (10,000-15,000 cells/well) were seeded in a 96-well plate. After 16 h incubation with various concentrations of 6-MP, 6-MPR and their S-allylthio-derivatives, 50 μl of XTT/PMS mixture (50 μM PMS, 0.1% XTT in medium) was added onto the cells. After an incubation period of 3-4 h at 37° C. the absorbance of the samples was measured in an ELISA Reader at 450 nm. SDS (1%, 10 μl/well) was added to reference wells before adding the XTT/PMS solution.
The inhibitory effects of the various prodrugs on Daudi leukemia cell and on monolayer N87 cells were compared. […] XTT was added to the wells for 3 h at 37° C. Cell viability was monitored using an ELISA reader at 450 nm, as described in Materials and Methods.
(In general: Tetrazolium dyes change colour on reduction, which living cells bring about.)

The subject of the next data set is Jurkat. As to the kind of experiment: Anti-proliferative concentration IC50 (Table 2). The class given is cell-based, human. Particulars: Homo sapiens, 16 h, tested at 0-100 μM, read-out: Anti-proferative concentration - IC50 (mean ± SE). The procedure:
as §5
(§6) The results of viability and proliferation were expressed as mean values±SD (n=3-6). For each cell line, the results were analyzed using two-way analysis of variance (ANOVA) followed by Bonferroni's posttest for the factors of the drugs used and their various concentrations, considering p<0.05 as significant. IC50 values (mean±SEM) were obtained from the linear range of the viability curve versus drug concentration (XTT assay).
(§7) In particular, cell in suspension, namely, Daudi, HL-60, U937, Molt-4, Jurkat and B-CLL, were tested at prodrug concentration of 0-100 μM, and monolayer cells, namely, Hela HtTA-1, MDR HT-29 and N87, were tested at prodrug concentration of 0-200 μM. in both cases, cell viability was determined by trypan blue dye exclusion assay. Data are presented in Table 2 hereinbelow for 6MP derivatives-treated for 16 h.

The next data set relates to U937. Kind of data set: Anti-proliferative concentration IC50 (Table 2). It is filed as cell-based, human. Conditions: Homo sapiens, U-937; U937, 16 h, tested at 0-100 μM; read-out: Anti-proferative concentration - IC50 (mean ± SE). The procedure: as §5, §6, §7
Where [7] appears, read: at the same concentrations (0-200 μM).
[8] abbreviates: Homo sapiens, [3H] thymidine incorporation, read-out: concentration at which 50% inhibition was observed.

Take `Sc1ncnc2nc[nH]c12` [6-MP, 6-Mercaptopurine, reference compound]: the “inhibition of proliferation” value in the data set with Daudi cells (setting [7]), in the data set on Hela cells [1] (setting [7]) and in the data set with N87 cells [2] (setting [7]) was “no inhibition of proliferation” throughout. In addition, the “sensitivity to treatment” value with B-CLL cells [3] (100-200 μM) is listed as “almost insensitive”. Moreover, the “sensitivity to treatment (cell death, words)” value with Hela cells [4] and with MDR HT-29 cells was “almost non-sensitive” in each case. The viability at 200 µM with Hela cells [4] (Homo sapiens, 200 μM) came out at 75%. Further, the “percent of apoptotic cells” value with B-CLL cells [5] (0-150 μM) is “no significant increase in the percent of apoptotic cells”. The “cell proliferation” value in the data set on N87 cells [6] (N87, 0-100 μM) was “no significant loss of cell proliferation”. Moreover, the “proliferation (residual)” value in the data set with N87 cells [6] (N87, 150 μM) was about 80%. Further, the IC50 in the data set on Jurkat and with U937 was over 200 µM throughout.

Turning to `C=CCSSc1ncnc2nc[nH]c12` [SA-6MP, S-allylthio-6-mercaptopurine], the IC50 with Daudi cells (setting [8]) is about 20 µM; with Hela cells [1] (setting [8]) it was 110 µM; in the data set with N87 cells [2] (setting [8]), 100 µM; in the data set with Jurkat it was 54.7 ± 6.3 µM; with U937, 46.7 ± 4.8 µM. Also, the residual viability with B-CLL cells [3] (concentrations higher than 150 μM) was 75%. Further, the “sensitivity to treatment (cell death, words)” value in the data set with Hela cells [4] and in the data set on MDR HT-29 cells was “almost non-sensitive” in each case. Also, the viability at 150 µM worked out at 65% in the data set on Hela cells [4] (Homo sapiens, 150 μM, read-out: viability compared to non-treated cells) and 40% in the data set on MDR HT-29 cells (Homo sapiens, MDR HT-29, 150 μM, read-out: viability compared to non-treated cells). Besides, the “percent of apoptotic cells” value came to 38% in the data set on B-CLL cells [5] (50 μM) and 95% with B-CLL cells [5] (100 μM). For the same molecule, the viability at 50 µM with N87 cells [6] (Homo sapiens, N87, 50 μM, read-out: residual proliferation / viability) was in the range of 50 to 60%.
